Experimental findings from patent US6680025B2, “Device and method for photoactivation” (Cerus Corporation, priority 1989, dated 2004) are described below.

The structures appear in SMILES notation. Marks after values point to notes of the source that are not given here.

In data set [1] the test system is 115-mer (SK-38/SK-39 HIV system). Description: Sterilization sensitivity, 115-mer PCR product. The conditions noted are these: CE-III 15 minutes, 30 cycles. Format: biochemical. The source says:
(§1) As discussed generally for sterilization, it is expected that the sensitivity of sterilization will depend upon both the modification density and the length of the PCR target sequences. In this experiment, the effect of modification density and target length on sterilization sensitivity were examined by sterilizing two different length PCR products with either AMIP or AMDMIP. Each isopsoralen was used at two different concentrations for the sterilization procedure to produce differing modification densities on PCR targets.
(§2) The two PCR targets used in these experiments were a 115-mer (SK-38/SK-39 HIV system) and a 500-mer. The 500-mer target is obtained from a PCR amplification of a lambda plasmid with primers PCR 01/02. This system is provided by Cetus/Perkin Elmer as a control in their commercial kits of PCR reagents (Catalogue No. N801-0055). For both of these systems equivalent copy numbers of each target were prepared in the following manner: An initial 30 cycle PCR reaction was carried out for each system with the appropriate primers and targets. Aliquots (approximately 10^5-10^6 target copies) of each of these reactions were transferred to a second set of PCR reactions. These second sets of PCR amplifications were carried out in the presence of α-32P-dCTP, again for 30 cycles. Aliquots of these reactions were removed and counted by liquid scintillation counting. With these numbers, the specific activity of the α-32P-dCTP, and the sequence of each of the PCR product oligonucleotides (115-mer and 500-mer), the concentrations of each of the two PCR product oligonucleotides in the second set of PCR reaction tubes was determined. Both the 115-mer and the 500-mer concentrations were then adjusted to exactly 1×10^−8M by the addition of additional Taq buffer. These stocks of equivalent copy number of PCR products were then used for further investigation. Each of the stock solutions then was subdivided into four reaction tubes. The reaction tubes were adjusted to contain the following: Tube 1, 100 μg/ml AMIP; Tube 2, 400 μg/ml AMIP; Tube 3, 100 μ/ml AMDMIP: and Tube 4, 400 μg/ml AMDMIP. Each of these samples were again split into two portions, one part being irradiated for 15 minutes at room temperature with the CE-III device and the other part kept in the dark. Serial dilutions of the irradiated and the unirradiated targets were then carried out on these samples for 30 cycles in the presence of α-32P-CTP. Aliquots of these samples were analyzed on denaturing polyacrylamide gels. The PCR product bands were visualized by autoradiography, cut, and counted in a liquid scintillation counter.

The test system of data set [2] is HIV 115-mer. Description: Crosslinkable Oligonucleotide Probe Analysis (COP) after sterilization. The format is biochemical. The protocol:
Preparation of Samples: The HIV 115-mer system with primers SK-38/SK-39 was used for the experiment (see FIG. 36, “HIV Oligonucleotide System”). Two types of starting template were used: previously amplified 115-mer or genomic DNA, isolated from an individual known to be infected with HIV (MACS sample). For previously amplified 115-mer between 10^5 and 10^6 copies were used for starting template. For the genomic (MACS) sample, approximately 1 μg (3×10^5 copies) of genomic DNA were used. Two PCR samples were prepared for each type of template then amplification was carried out for either 20 or 30 cycles. One of the two PCR samples contained AMDMIP at 200 μg/ml while the other was AMDMIP free. Following amplification, the AMDMIP containing samples were divided and half were irradiated. Analysis (OH or COP) was then done on the three samples from each set (AMDMIP free, AMDMIP unirradiated, and AMDMIP irradiated) for each cycle number. The AMDMIP free samples served as control, the AMDMIP unirradiated sampes adressed the effect of non-covalently bound AMDMIP on detection, and AMDMIP irradiated samples addressed the effect of covalently bound AMDMIP on detection.
COP and OH assays were performed a follows. 10 μl of the PCR reaction mixture was added to 3.3 μl of “probe mix” [5′-labelled SK-19 (normal or monoadducted) at 10^−8 M containing EDTA and an appropriate salt mixtures], overlaid with 30-40 μl of light mineral oil, then heated to 95-100° C. for 5 minutes. For COP, the hybridization mixture as placed in the PTI device at 56° C. and irradiated for 15 minutes. Following this, loading dyes (containing urea or formamide) were added, the sample heated to 95-100° C. for 5 minutes, quick chilled on wet ice, then loaded on a denaturing PAGE gel followed by electrophoresis under denaturing conditions. For OH reactions, the hybridization mixture was incubated at 56° C. for 30 minutes, loading dyes added, and aliquots loaded directly into a native PAGE gel followed by electrophoresis under native conditions. 1. Samples 1-6 contain previously amplified 115-mer that was re-amplified either 20 (samples 1,3,5) or 30 (Samples 2,4,6) cycles then detected by COP. Samples 1 & 2 are controls (without AMDMIP); samples 3 and 4 are (with AMDMIP and with light) sterilized samples; samples 5 & 6 are (with AMDMIP but without light) controls. The bands corresponding to amplified 115-mer crosslinked to labelled 41-mer probe (SK-19 MA) are the upper bands in FIG. 46. Samples 11-16 are the same series except the MACS sample was used as template.

The subject of data set [3] is 500-mer (lambda plasmid, primers PCR 01/02). Kind of data set: Sterilization sensitivity, 500-mer PCR product. The format is biochemical. The settings on record: CE-III 15 minutes, 30 cycles.
Description: as §1, §2

The nature of data set [4]: Solubility of photoreactive compounds in 1×TE. Format: physicochemical. The conditions noted are these: excess compound heated 50-70° C., stirred at room temperature, filtered; optical density. The protocol:
The solubilities of AMIP, AMDMIP, DMIP, MIP and isopsoralen (IP) were determined experimentally according to the scheme set forth in FIG. 5. To perform the solubility measurement, it was first necessary to establish known optical densities for a 1 μg/ml solution of each compound. These were determined by preparing either ethanolic or aqueous stocks of each compound at known concentrations in 1×TE, then measuring the optical density of each solution. From this information, the absorption of a 1 μg/ml solution was computed. Alternatively, the extinction coefficient may be thus determined and used in the same fashion. In this manner, the following absorption data was collected:
Following this step, undissolved compound was removed by filtration using a 0.2 u nylon-66 syringe filter (Arco LC13; Gelman). The concentration of the remaining soluble compound was then determined by measuring the optical density of the filtrate and computing the solubility from the known optical density of a 1 μg/ml solution of that compound. The solubility of the compounds was thus determined to be as follows: […]

As for `Cc1oc2ccc3c(C)cc(=O)oc3c2c1CN` [AMDMIP, 4′-Aminomethyl-4,5′-dimethylisopsoralen], the “sterilization sensitivity (carryover sterilized)” value in data set [1] (100 μg/ml) is given as “better sterilization agent”; in data set [1] (400 μg/ml), ≥ 6×10^9 carryover molecules; in data set [3] (100 μg/ml), ≥ 6×10^9 carryover molecules; in data set [3] (400 μg/ml) it was “no signal in the irradiated dilution series”. Moreover, the “COP hybrid band CPM” value in data set [2] (sample 3: previously amplified 115-mer, 20 cycles, AMDMIP 200 μg/ml with light) is reported as 1944 CPM; in data set [2] (sample 4: previously amplified 115-mer, 30 cycles, AMDMIP 200 μg/ml with light), 36452 CPM; in data set [2] (sample 5: previously amplified 115-mer, 20 cycles, AMDMIP 200 μg/ml without light) it was 4480 CPM; in data set [2] (sample 6: previously amplified 115-mer, 30 cycles, AMDMIP 200 μg/ml without light), 39596 CPM; in data set [2] (sample 13: MACS genomic DNA, 20 cycles, AMDMIP 200 μg/ml with light) it was 460 CPM; in data set [2] (sample 14: MACS genomic DNA, 30 cycles, AMDMIP 200 μg/ml with light), 41777 CPM. In addition, the “COP hybrid band CPM” value in data set [2] (sample 15: MACS genomic DNA, 20 cycles, AMDMIP 200 μg/ml without light) stood at 464 CPM; in data set [2] (sample 16: MACS genomic DNA, 30 cycles, AMDMIP 200 μg/ml without light) it was 35176 CPM. Besides, the “COP hybrid band CPM as % of AMDMIP-free control” value is listed as 62% in data set [2] (sample 3: previously amplified 115-mer, 20 cycles, AMDMIP with light); 83% in data set [2] (sample 4: previously amplified 115-mer, 30 cycles, AMDMIP with light); 144% in data set [2] (sample 5: previously amplified 115-mer, 20 cycles, AMDMIP without light); 90% in data set [2] (sample 6: previously amplified 115-mer, 30 cycles, AMDMIP without light); 52% in data set [2] (sample 13: MACS genomic DNA, 20 cycles, AMDMIP with light); 78% in data set [2] (sample 14: MACS genomic DNA, 30 cycles, AMDMIP with light). Moreover, the “COP hybrid band CPM as % of AMDMIP-free control” value came out at 53% in data set [2] (sample 15: MACS genomic DNA, 20 cycles, AMDMIP without light) and 66% in data set [2] (sample 16: MACS genomic DNA, 30 cycles, AMDMIP without light). Besides, the “Solubility in 1 × TE” value in data set [4] was >22,700* ug/ml.
On to `NCc1cc2occc2c2oc(=O)ccc12` [AMIP, 5-Aminomethylisopsoralen], for which the “sterilization sensitivity (carryover sterilized)” value in data set [1] (100 μg/ml) is recorded as “about 10,000 molecules of carryover”; in data set [1] (400 μg/ml), “about 10^6 carryover molecules”; in data set [3] (100 μg/ml), “more effectively sterilized than the 115-mer PCR product”; in data set [3] (400 μg/ml), ≥ 6×10^9 molecules of carryover. Moreover, the “Solubility in 1 × TE” value in data set [4] is given as 21,000 ug/ml.
In the case of `Cc1cc2occc2c2oc(=O)ccc12` [MIP, 5-Methylisopsoralen], in data set [4], the “Solubility in 1 × TE” value is “nd (nd = not detectable (solubility was less than 1 μg/ml))”.
